#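 Compound exposure: 48 hours, 5 concentrations, 96-well plates. GI50 marks 50% less growth. TGI is the concentration that stops growth completely.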
# Key:
# Assay in all cases: NCI anticancer screen, dose series, 48 h
# BT-549 breast = system: BT-549 breast
# DU-145 prostate = system: DU-145 prostate
# HS 578T breast = system: HS 578T breast
# MCF7 breast = system: MCF7 breast
# KM20L2 colon = system: KM20L2 colon
# LXFL 529 NSCLC = system: LXFL 529 NSCLC
# DMS 114 small cell lung = system: DMS 114 small cell lung
# SNB-78 CNS = system: SNB-78 CNS
# M19-MEL melanoma = system: M19-MEL melanoma
# XF 498 CNS = system: XF 498 CNS
Compound,GI50 (BT-549 breast) [µM],TGI (BT-549 breast) [µM],GI50 (DU-145 prostate) [µM],TGI (DU-145 prostate) [µM],GI50 (HS 578T breast) [µM],TGI (HS 578T breast) [µM],GI50 (MCF7 breast) [nM],TGI (MCF7 breast) [µM],TGI (KM20L2 colon) [µM],TGI (LXFL 529 NSCLC) [µM],TGI (DMS 114 small cell lung) [µM],TGI (SNB-78 CNS) [µM],TGI (M19-MEL melanoma) [µM],TGI (XF 498 CNS) [µM],GI50 (KM20L2 colon) [µM]
C[C@H](NC(=O)[C@@H]1CSSC[C@@H](NC(=O)c2nc3ccccc3cc2O)C(=O)NCC(=O)N1C)c1ccccc1,6.88,16.1,5.78,12.7,11.2,34.1,835,2.47,,,,,,,
COc1ccc(Nc2ncc(Br)c(NCCCNC(=O)C3CCC3)n2)cc1,3.62,15.9,20.5,> 100,3.23,9.2,16100,67.5,,,,,,,
CCCn1c(SC)nc(COC(=O)NC)c1COC(=O)NC,,> 100,,> 100,,> 100,,> 100,,,,,,,
CCCCC1CC(c2cccc([N+](=O)[O-])c2)=NO1 (centres undefined),,,,,,,,,> 100,> 100,> 100,> 100,> 100,,
CCC(=O)O[C@H]1CC[C@H]2[C@@H]3CC[C@H]4CC(=O)[C@H](C)C[C@]4(C)[C@H]3CC[C@]12C,37,> 100,> 79.7,> 100,44,> 100,23900,> 66.1,,,,,,,
Clc1ccc(Cc2nc3ccccc3s2)c(Cl)c1,,,,,,,,,52,31.1,36.5,,30.5,26.5,
CC(C)C1(O)C(c2ccccc2)=C(c2ccccc2)C(c2ccccc2)=C1c1ccccc1,,,,,,,,,23.3,51.9,11.8,> 100,,14.2,
O=[N+]([O-])c1ccc(S(=O)Cc2ccccc2)c([N+](=O)[O-])c1 (centres undefined),2.09,7.37,11,23,21.4,> 100,2480,6.96,,,,,,,
Oc1ccc(C(c2ccc(O)cc2)c2ccc(Cl)cn2)cc1,0.0231,0.0707,1.06,> 100,0.0216,0.0624,54.6,0.545,,,,,,,
O=c1[nH]c(=O)n([C@@H]2C[C@H](CO)[C@H](O)C2)cc1/C=C/Br,,,,,,,,,> 100,> 100,> 100,> 100,> 100,,
COc1ccc(C2SCC(=O)N2NC(=O)C(O)c2ccccc2)cc1OC (centres undefined),> 100,> 100,> 100,> 100,> 100,> 100,> 100000,> 100,,,,,,,
COC(=O)C1C(O)CC(c2ccccn2)N(Cc2ccccc2)C1c1ccccn1 (centres undefined),,,,,,,,,> 100,> 100,> 100,> 100,> 100,,
O=C([CH-]C(=O)c1ccccc1)c1ccccc1.O=C([CH-]C(=O)c1ccccc1)c1ccccc1.O=C([CH-]C(=O)c1ccccc1)c1ccccc1.[Nd+3].[OH3+],,,,,,,,,48,,,,,,10.9
Oc1cc(O)c(Oc2cccc(O)c2O)c(O)c1,,,,,,,,,,> 100,> 100,> 100,45.9,> 100,

# Reference: PubChem BioAssay (NCI)
